Assay results taken from publication PMC5011342, “A high throughput drug screening assay to identify compounds that promote oligodendrocyte differentiation using acutely dissociated and purified oligodendrocyte precursor cells” (BMC Research Notes, 2016).
Like-named read-outs stand apart in the source and are kept apart here.

Tests used:
expanded OPCs = test: cells; settings: for viability at 0.1 µM / viability at 1 µM / viability at 10 µM: Rattus norvegicus, 72 h
In short: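 Expanded OPCs seeded at 10,000 cells/well in differentiation media, then exposed to NCC library compounds at 10, 1 and 0.1 µM (quadruplicate, 0.1% DMSO) for three days. Viability read as alamarBlue fluorescence (560/590 nm) after 4 h at 37 °C; tunicamycin 5 ng/ml served as toxicity control.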

[1] = system: acutely dissociated and purified rat OPCs; test: Acute OL differentiation assay (MBP expression/cell, immunofluorescent image quantification); format: cell-based; settings: for activation at 0.4 µM / activation at 2 µM / activation at 10 µM / activation at 0.08 µM: Rattus norvegicus
In short: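 Oligodendrocyte precursor cells were enriched from P6-P7 Sprague–Dawley rat brains by immunopanning (RAN-2 and GalC depletion, O4 selection), plated at 5000 cells/well in serum-free, mitogen-free differentiation media on PDL/laminin 96-well view plates, centrifuged at 200×g, and pre-incubated 1–2 h before test compounds were added in quadruplicate. On DIV4, cells were fixed, stained for MBP and DAPI, imaged automatically, and MBP expression per cell was quantified.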

[2] = alamarBlue viability of expanded OPCs, compound at 0.1 µM, relative to DMSO control
[3] = alamarBlue viability of expanded OPCs, compound at 1 µM, relative to DMSO control
[4] = alamarBlue viability of expanded OPCs, compound at 10 µM, relative to DMSO control
[5] = test compound at 0.4 uM, MBP expression relative to quetiapine, NCC library screen, sheet "All OLga data", read-out: 0.4 uM (% Quet)
[6] = test compound at 2 uM, MBP expression relative to quetiapine, NCC library screen, sheet "All OLga data", read-out: 2 uM (% Quet)
[7] = read-out: 0.1 µM (% DMSO), alamarBlue viability, NCC library compound at 0.1 µM, sheet "All Tox data"
[8] = read-out: 1 µM (% DMSO), alamarBlue viability, NCC library compound at 1 µM, sheet "All Tox data"
[9] = read-out: 10 µM (% DMSO), alamarBlue viability, NCC library compound at 10 µM, sheet "All Tox data"
[10] = test compound at 2 uM, NCC library screen, sheet "All OLga data", relative to quetiapine, read-out: 2 uM (% Quet)
[11] = test compound at 10 uM, NCC library screen, sheet "All OLga data", relative to quetiapine, read-out: 10 uM (% Quet)
[12] = read-out: 0.1 µM (% DMSO), alamarBlue viability of expanded OPCs, compound at 0.1 µM, sheet All Tox data
[13] = read-out: 1 µM (% DMSO), alamarBlue viability of expanded OPCs, compound at 1 µM, sheet All Tox data
[14] = read-out: 10 µM (% DMSO), alamarBlue viability of expanded OPCs, compound at 10 µM, sheet All Tox data
[15] = 2 uM test compound, relative to quetiapine, sheet "All OLga data", read-out: OL differentiation, 2 uM (% Quet)
[16] = 10 uM test compound, relative to quetiapine, sheet "All OLga data", read-out: OL differentiation, 10 uM (% Quet)
[17] = alamarBlue viability, NCC library compound at 0.1 µM, sheet "All Tox data"
[18] = alamarBlue viability, NCC library compound at 1 µM, sheet "All Tox data"
[19] = alamarBlue viability, NCC library compound at 10 µM, sheet "All Tox data"
[20] = test compound at 2 uM, NCC library screen, sheet "All OLga data", relative to quetiapine
[21] = test compound at 10 uM, NCC library screen, sheet "All OLga data", relative to quetiapine
[22] = 0.4 uM test compound, relative to quetiapine, sheet "All OLga data", read-out: OL differentiation, 0.4 uM (% Quet)

CCC(C)(C)C(=O)O[C@H]1C[C@@H](C)C=C2C=C[C@H](C)[C@H](CC[C@@H]3C[C@@H](O)CC(=O)O3)[C@H]21 [Simvastatin]
0.1 µM (% DMSO) (expanded OPCs; [2]): 157.3 % DMSO
1 µM (% DMSO) (expanded OPCs; [3]): 86.5 % DMSO
10 µM (% DMSO) (expanded OPCs; [4]): 25.7 % DMSO
activation at 0.4 µM [1, 5]: -105%
activation at 2 µM [1, 6]: -140%

O=C(NCCO[N+](=O)[O-])c1cccnc1 [Nicorandil]
viability at 0.1 µM (expanded OPCs; [7]): 92.6%
viability at 1 µM (expanded OPCs; [8]): 85.6%
viability at 10 µM (expanded OPCs; [9]): 82.2%
activation at 2 µM [1, 10]: 14.7%
activation at 10 µM [1, 11]: 3.2%

CC[C@H](C)C(=O)O[C@H]1C[C@H](O)C=C2C=C[C@H](C)[C@H](CC[C@@H](O)C[C@@H](O)CC(=O)O)[C@H]21 [Pravastatin]
viability at 0.1 µM (expanded OPCs; [12]): 113%
viability at 1 µM (expanded OPCs; [13]): 124%
viability at 10 µM (expanded OPCs; [14]): 151%
activation at 2 µM [1, 15]: 8.6%
activation at 10 µM [1, 16]: -87.5%

COc1cccc(C2(O)CCCCC2CN(C)C)c1 (stereo not shown) [Tramadol]
viability at 0.1 µM (expanded OPCs; [7]): 100%
viability at 1 µM (expanded OPCs; [8]): 107%
viability at 10 µM (expanded OPCs; [9]): 96.7%
activation at 2 µM [1, 10]: -1.7%
activation at 10 µM [1, 11]: -9.7%

Fc1cncnc1 [5-fluoropyrimidine]
viability at 0.1 µM (expanded OPCs; [7]): 89.9%
viability at 1 µM (expanded OPCs; [8]): 85.6%
viability at 10 µM (expanded OPCs; [9]): 80.4%
activation at 2 µM [1, 15]: -16.3%
activation at 10 µM [1, 16]: -9.2%

COC(=O)N1CCN(C(=O)Cc2ccc(Cl)c(Cl)c2)C(CN2CCCC2)C1 (stereo not shown) [GR 89696]
0.1 µM (% DMSO) (expanded OPCs; [17]): 94.6 % DMSO
1 µM (% DMSO) (expanded OPCs; [18]): 83.7 % DMSO
10 µM (% DMSO) (expanded OPCs; [19]): 70.7 % DMSO
2 uM (% Quet) [1, 20]: 34.9 % Quet
10 uM (% Quet) [1, 21]: 63.5 % Quet

Nc1ccc2cn[nH]c2c1 [6-Aminoindazole]
0.1 µM (% DMSO) (expanded OPCs; [17]): 85.3 % DMSO
1 µM (% DMSO) (expanded OPCs; [18]): 87.5 % DMSO
10 µM (% DMSO) (expanded OPCs; [19]): 73.6 % DMSO
2 uM (% Quet) [1, 20]: -23.3 % Quet
10 uM (% Quet) [1, 21]: -40.9 % Quet

CCCCC[C@H](O)/C=C/[C@H]1[C@H](O)CC(=O)[C@@H]1CCCCCCC(=O)O [Alprostadil]
viability at 0.1 µM (expanded OPCs; [7]): 84.4%
viability at 1 µM (expanded OPCs; [8]): 85.6%
viability at 10 µM (expanded OPCs; [9]): 81.6%
activation at 2 µM [1, 10]: -7.2%
activation at 10 µM [1, 11]: -67.6%

C#C[C@]1(O)CC[C@H]2[C@@H]3CCC4=Cc5oncc5C[C@]4(C)[C@H]3CC[C@@]21C [Danazol]
0.1 µM (% DMSO) (expanded OPCs; [2]): 95.3 % DMSO
1 µM (% DMSO) (expanded OPCs; [3]): 92.4 % DMSO
10 µM (% DMSO) (expanded OPCs; [4]): 47.1 % DMSO
activation at 0.4 µM ([1]; test compound at 0.4 uM, NCC library screen, sheet "All OLga data", relative to quetiapine, read-out: 0.4 uM (% Quet)): 9.4%
activation at 2 µM [1, 10]: 24.1%

Cn1cnc([N+](=O)[O-])c1Sc1ncnc2nc[nH]c12 [Azathioprine]
0.1 µM (% DMSO) (expanded OPCs; [2]): 90.4 % DMSO
1 µM (% DMSO) (expanded OPCs; [3]): 91.6 % DMSO
10 µM (% DMSO) (expanded OPCs; [4]): 63.6 % DMSO
activation at 2 µM [1, 6]: -21.2%
activation at 10 µM ([1]; test compound at 10 uM, MBP expression relative to quetiapine, NCC library screen, sheet "All OLga data", read-out: 10 uM (% Quet)): -94.3%

Oc1c(Cl)cc(Cl)c(Cl)c1Cc1c(O)c(Cl)cc(Cl)c1Cl [Hexachlorophene]
0.1 µM (% DMSO) (expanded OPCs; [2]): 115.4 % DMSO
1 µM (% DMSO) (expanded OPCs; [3]): 10.8 % DMSO
10 µM (% DMSO) (expanded OPCs; [4]): 9.0 % DMSO
activation at 0.08 µM ([1]; read-out: 0.08 uM (% Quet)): -122%

CCN1CCN(c2cc3c(cc2F)c(=O)c(C(=O)O)cn3C2CC2)CC1 [Enrofloxacin]
viability at 0.1 µM (expanded OPCs; [7]): 88.5%
viability at 1 µM (expanded OPCs; [8]): 89%
viability at 10 µM (expanded OPCs; [9]): 79.9%
activation at 2 µM [1, 10]: -3.6%
activation at 10 µM [1, 11]: 13.5%

CC(C)[N+](C)(CCOC(=O)C1c2ccccc2Oc2ccccc21)C(C)C [Propantheline]
viability at 0.1 µM (expanded OPCs; [7]): 91.7%
viability at 1 µM (expanded OPCs; [8]): 112%
viability at 10 µM (expanded OPCs; [9]): 148%
activation at 2 µM [1, 10]: 36.4%
activation at 10 µM [1, 11]: 90.8%

O=C1Nc2ccc(Cl)cc2C(c2ccccc2Cl)=NC1O (stereo not shown) [Lorazepam]
viability at 0.1 µM (expanded OPCs; [7]): 90.5%
viability at 1 µM (expanded OPCs; [8]): 81.6%
viability at 10 µM (expanded OPCs; [9]): 71.2%
activation at 2 µM [1, 10]: -21.5%
activation at 10 µM [1, 11]: -31.2%

CN[C@H]1CC[C@@H](c2ccc(Cl)c(Cl)c2)c2ccccc21 [Sertraline]
viability at 0.1 µM (expanded OPCs; [12]): 74.6%
viability at 1 µM (expanded OPCs; [13]): 24.6%
viability at 10 µM (expanded OPCs; [14]): 11.1%
0.1 µM (% DMSO) (expanded OPCs; [2]): 52.7 % DMSO
1 µM (% DMSO) (expanded OPCs; [3]): 20.4 % DMSO
10 µM (% DMSO) (expanded OPCs; [4]): 7.7 % DMSO
activation at 0.08 µM ([1]; 0.08 uM test compound, relative to quetiapine, sheet "All OLga data", read-out: OL differentiation, 0.08 uM (% Quet)): 0.9%
activation at 0.4 µM [1, 22]: -63.6%
activation at 0.08 µM ([1]; test compound at 0.08 uM, MBP expression relative to quetiapine, NCC library screen, sheet "All OLga data", read-out: 0.08 uM (% Quet)): -13.2%
activation at 0.4 µM [1, 5]: -134%

COC(=O)C1=C(C)NC(C)=C(C(=O)OC2CCCN(Cc3ccccc3)C2)C1c1cccc([N+](=O)[O-])c1 (stereo not shown) [Benidipine]
viability at 0.1 µM (expanded OPCs; [12]): 84.6%
viability at 1 µM (expanded OPCs; [13]): 93%
viability at 10 µM (expanded OPCs; [14]): 11.6%
activation at 0.4 µM [1, 22]: 7.1%
activation at 2 µM [1, 15]: 3.1%

Cc1cccc(Nc2ccccc2C(=O)O)c1C [Mefenamic Acid]
0.1 µM (% DMSO) (expanded OPCs; [2]): 92.7 % DMSO
1 µM (% DMSO) (expanded OPCs; [3]): 91.8 % DMSO
10 µM (% DMSO) (expanded OPCs; [4]): 83.6 % DMSO
activation at 2 µM [1, 10]: -4%
activation at 10 µM [1, 11]: -22.3%

Cc1ccc(O)c([C@H](CCN(C(C)C)C(C)C)c2ccccc2)c1 [Tolterodine]
viability at 0.1 µM (expanded OPCs; [12]): 88.4%
viability at 1 µM (expanded OPCs; [13]): 87.8%
viability at 10 µM (expanded OPCs; [14]): 46.5%
activation at 0.4 µM [1, 22]: -6.8%
activation at 2 µM [1, 15]: -0.9%

CS(=O)(=O)c1ccc(C2=C(c3ccccc3)C(=O)OC2)cc1 [Rofecoxib]
viability at 0.1 µM (expanded OPCs; [12]): 91.5%
viability at 1 µM (expanded OPCs; [13]): 97.2%
viability at 10 µM (expanded OPCs; [14]): 115%
activation at 2 µM [1, 15]: -10.8%
activation at 10 µM [1, 16]: -9%

CC(=O)O[C@H]1C[C@@H]2CC[C@@H]3[C@H](CC[C@@]4(C)[C@H]3C[C@H]([N+]3(C)CCCCC3)[C@@H]4OC(C)=O)[C@@]2(C)C[C@@H]1N1CCCCC1 [Vecuronium Bromide]
viability at 0.1 µM (expanded OPCs; [7]): 86.3%
viability at 1 µM (expanded OPCs; [8]): 87.7%
viability at 10 µM (expanded OPCs; [9]): 78.4%
activation at 2 µM [1, 10]: 13.2%
activation at 10 µM [1, 11]: 17.7%

CCN1CC(CCN2CCOCC2)C(c2ccccc2)(c2ccccc2)C1=O (stereo not shown) [Doxapram]
viability at 0.1 µM (expanded OPCs; [7]): 89%
viability at 1 µM (expanded OPCs; [8]): 89.2%
viability at 10 µM (expanded OPCs; [9]): 79.9%
activation at 2 µM [1, 10]: -8.9%
activation at 10 µM [1, 11]: 14.8%
